Measurements published in publication PMC8766551, “Amino acid residue at position 188 determines the UV-sensitive bistable property of vertebrate non-visual opsin Opn5” (Communications Biology, 2022).
Substitutions are numbered along the chain they refer to.

What was measured:
Assay type in all cases: binding
Xenopus tropicalis Opn5m [1] = molecular target: T1, Xenopus tropicalis Opn5m (Xenopus tropicalis, UniProt A0A8J0QRX8, W163F); assay: reconstitution, purification, HPLC of retinal oximes; settings: covalent; 40 uM 11-cis retinal added to collected cell membranes, 4 °C, 24 h, dark; pH 6.5; isomer composition, no affinity
T1 construct: gene opn5; 21 residues truncated from the C-terminus; expressed in HEK293S cells; purified in DDM on Rho1D4-agarose
T1 sequence (A0A8J0QRX8 1-322 W163F): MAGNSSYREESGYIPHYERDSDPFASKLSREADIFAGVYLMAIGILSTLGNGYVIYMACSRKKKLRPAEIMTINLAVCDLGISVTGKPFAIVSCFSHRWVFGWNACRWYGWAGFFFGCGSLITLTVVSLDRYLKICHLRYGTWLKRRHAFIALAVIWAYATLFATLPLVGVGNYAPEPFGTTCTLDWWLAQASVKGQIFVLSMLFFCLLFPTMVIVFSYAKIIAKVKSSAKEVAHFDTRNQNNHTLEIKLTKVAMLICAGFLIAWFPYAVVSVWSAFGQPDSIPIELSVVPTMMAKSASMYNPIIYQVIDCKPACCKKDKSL

Xenopus tropicalis Opn5m [2] = molecular target: T2, Xenopus tropicalis Opn5m (Xenopus tropicalis, UniProt A0A8J0QRX8); assay: as above; settings: covalent; 40 uM 11-cis retinal added to collected cell membranes, 4 °C, 24 h, dark; pH 6.5; isomer composition, no affinity
T2 construct: gene opn5; 21 residues truncated from the C-terminus; expressed in HEK293S cells; purified in DDM on Rho1D4-agarose
T2 sequence (A0A8J0QRX8 1-322): T1 sequence (A0A8J0QRX8 1-322 W163F) with F163W

Xenopus tropicalis Opn5m [3] = molecular target: T3, Xenopus tropicalis Opn5m (Xenopus tropicalis, UniProt A0A8J0QRX8, L208F); assay: as above; settings: covalent; 40 uM 11-cis retinal added to collected cell membranes, 4 °C, 24 h, dark; pH 6.5; isomer composition, no affinity
T3 construct: gene opn5; 21 residues truncated from the C-terminus; expressed in HEK293S cells; purified in DDM on Rho1D4-agarose
T3 sequence (A0A8J0QRX8 1-322 L208F): T1 sequence (A0A8J0QRX8 1-322 W163F) with F163W, L208F

Xenopus tropicalis Opn5m [4] = molecular target: T2, Xenopus tropicalis Opn5m; assay: absorption spectrum of purified reconstituted pigment, difference spectrum; settings: covalent; all-trans retinal added, dark versus yellow light (>500 nm), 0 °C, pH 6.5; spectral value, no affinity
Xenopus tropicalis Opn5m [5] = molecular target: T4, Xenopus tropicalis Opn5m (Xenopus tropicalis, UniProt A0A8J0QRX8, T184N); assay: as above; settings: covalent; all-trans retinal added, dark versus yellow light (>500 nm), 0 °C, pH 6.5; spectral value, no affinity
T4 construct: gene opn5; 21 residues truncated from the C-terminus; expressed in HEK293S cells; purified in DDM on Rho1D4-agarose
T4 sequence (A0A8J0QRX8 1-322 T184N): T1 sequence (A0A8J0QRX8 1-322 W163F) with F163W, T184N

Xenopus tropicalis Opn5m [6] = molecular target: T5, Xenopus tropicalis Opn5m (Xenopus tropicalis, UniProt A0A8J0QRX8, T184S); assay: as above; settings: covalent; all-trans retinal added, dark versus yellow light (>500 nm), 0 °C, pH 6.5; spectral value, no affinity
T5 construct: gene opn5; 21 residues truncated from the C-terminus; expressed in HEK293S cells; purified in DDM on Rho1D4-agarose
T5 sequence (A0A8J0QRX8 1-322 T184S): T1 sequence (A0A8J0QRX8 1-322 W163F) with F163W, T184S

Xenopus tropicalis Opn5m [7] = molecular target: T3, Xenopus tropicalis Opn5m; assay: as above; settings: covalent; 40 uM all-trans retinal added to collected cell membranes, dark versus yellow light (>500 nm), 0 °C, pH 6.5; spectral value, no affinity
Xenopus tropicalis Opn5m [8] = molecular target: T6, Xenopus tropicalis Opn5m (Xenopus tropicalis, UniProt A0A8J0QRX8, T184G); assay: as above; settings: covalent; all-trans retinal added, dark versus yellow light (>500 nm), 0 °C, pH 6.5; spectral value, no affinity
T6 construct: gene opn5; 21 residues truncated from the C-terminus; expressed in HEK293S cells; purified in DDM on Rho1D4-agarose
T6 sequence (A0A8J0QRX8 1-322 T184G): T1 sequence (A0A8J0QRX8 1-322 W163F) with F163W, T184G

Xenopus tropicalis Opn5m [9] = molecular target: T7, Xenopus tropicalis Opn5m (Xenopus tropicalis, UniProt A0A8J0QRX8, T184C); assay: as above; settings: covalent; all-trans retinal added, dark versus yellow light (>500 nm), 0 °C, pH 6.5; spectral value, no affinity
T7 construct: gene opn5; 21 residues truncated from the C-terminus; expressed in HEK293S cells; purified in DDM on Rho1D4-agarose
T7 sequence (A0A8J0QRX8 1-322 T184C): T1 sequence (A0A8J0QRX8 1-322 W163F) with F163W, T184C

Xenopus tropicalis Opn5m [10] = molecular target: T8, Xenopus tropicalis Opn5m (Xenopus tropicalis, UniProt A0A8J0QRX8, T184Q); assay: as above; settings: covalent; all-trans retinal added, dark versus yellow light (>500 nm), 0 °C, pH 6.5; spectral value, no affinity
T8 construct: gene opn5; 21 residues truncated from the C-terminus; expressed in HEK293S cells; purified in DDM on Rho1D4-agarose
T8 sequence (A0A8J0QRX8 1-322 T184Q): T1 sequence (A0A8J0QRX8 1-322 W163F) with F163W, T184Q

Xenopus tropicalis Opn5m [11] = molecular target: T9, Xenopus tropicalis Opn5m (Xenopus tropicalis, UniProt A0A8J0QRX8, T184A); assay: as above; settings: covalent; all-trans retinal added, dark versus yellow light (>500 nm), 0 °C, pH 6.5; spectral value, no affinity
T9 construct: gene opn5; 21 residues truncated from the C-terminus; expressed in HEK293S cells; purified in DDM on Rho1D4-agarose
T9 sequence (A0A8J0QRX8 1-322 T184A): T1 sequence (A0A8J0QRX8 1-322 W163F) with F163W, T184A

Xenopus tropicalis Opn5m [12] = molecular target: T10, Xenopus tropicalis Opn5m (Xenopus tropicalis, UniProt A0A8J0QRX8, T184M); assay: as above; settings: covalent; all-trans retinal added, dark versus yellow light (>500 nm), 0 °C, pH 6.5; spectral value, no affinity
T10 construct: gene opn5; 21 residues truncated from the C-terminus; expressed in HEK293S cells; purified in DDM on Rho1D4-agarose
T10 sequence (A0A8J0QRX8 1-322 T184M): T1 sequence (A0A8J0QRX8 1-322 W163F) with F163W, T184M

% of bound retinal as 11-cis isomer (Xenopus tropicalis Opn5m [1]) [%] | % of bound retinal as 11-cis isomer (Xenopus tropicalis Opn5m [2]) [%] | % of bound retinal as 11-cis isomer (Xenopus tropicalis Opn5m [3]) [%] | λmax (Xenopus tropicalis Opn5m [4]) [nm] | λmax (Xenopus tropicalis Opn5m [5]) [nm] | λmax (Xenopus tropicalis Opn5m [6]) [nm] | λmax (Xenopus tropicalis Opn5m [7]) [nm] | λmax (Xenopus tropicalis Opn5m [8]) [nm] | λmax (Xenopus tropicalis Opn5m [9]) [nm] | λmax (Xenopus tropicalis Opn5m [10]) [nm] | λmax (Xenopus tropicalis Opn5m [11]) [nm] | λmax (Xenopus tropicalis Opn5m [12]) [nm] | SMILES
84 | 91 | 88 |  |  |  |  |  |  |  |  |  | CC1=C(/C=C/C(C)=C/C=C\C(C)=C\C=O)C(C)(C)CCC1 [11-cis retinal]
 |  |  | 474 | 460 | 478 | 475 | 477 | 470 | 483 | 481 | 467 | CC1=C(/C=C/C(C)=C/C=C/C(C)=C/C=O)C(C)(C)CCC1 [all-trans retinal]
